Data as given in ChEMBL document CHEMBL3044918, “Ability of vitamins to induce downy mildew disease resistance and growth promotion in pearl millet” (2007).
Calls of active or inactive are those of the source. The calls are words filed in the database; no cut-off is given here.

Experiments:
[1] = tested on: Cenchrus americanus; assay: (§1) Induction of systemic acquired resistance against Sclerospora graminicola in Cenchrus americanus cultivar 7042S assessed as protection against downy mildew disease at 20 mM applied to seeds prior to sowing followed by inoculation on 2 day old seedling measured on day 30 in green house conditions (reference value: 3%); type: functional
[2] = tested on: Cenchrus americanus; assay: Stimulation of seed germination in Cenchrus americanus cultivar 7042S at 20 mM incubated for 6 hr followed by sowing measured at 7-day old seedling stage (reference value: 88%); type: functional
[3] = tested on: Cenchrus americanus; assay: Increase in seed vigor in Cenchrus americanus cultivar 7042S at 20 mM incubated for 6 hr followed by sowing measured at 7-day old seedling stage relative to control; type: functional, organism-based
[4] = tested on: Cenchrus americanus; assay: as §1, with “6 g/kg” for “20 mM”, “and to foliar of 7” for “followed by inoculation on 2”, “seedling inoculated on day 2” for “seedling”, “field” for “green house”; type: functional
[5] = tested on: Cenchrus americanus; assay: Induction of systemic acquired resistance against Sclerospora graminicola in Cenchrus americanus cultivar 7042S assessed as protection against downy mildew disease at 6 g/kg applied to foliar of 7 day old seedling inoculated on day 2 measured on day 30 in field conditions (reference value: 2%); type: functional
[6] = tested on: Cenchrus americanus; assay: as §1, with “6 g/kg” for “20 mM”, “field” for “green house”; type: functional
[7] = tested on: Cenchrus americanus; assay: as §1, with “6 g/kg” for “20 mM”, “condition(reference” for “conditions (reference”; type: functional
[8] = tested on: Cenchrus americanus; assay: (§2) Induction of systemic acquired resistance against Sclerospora graminicola in Cenchrus americanus cultivar 7042S assessed as protection against downy mildew disease at 20 mM applied to seeds prior to sowing followed by inoculation at cleoptile stage at day 2 post seedling emergence measured on day 30 in green house conditions relative to control; type: functional
[9] = tested on: Cenchrus americanus; assay: as §2, with “on 2” for “at cleoptile stage at”, “old” for “2 post”, “and challenge-inoculation to the nodal tiller” for “emergence”, “60” for “30”, “condition” for “conditions”; type: functional
[10] = tested on: Cenchrus americanus; assay: Induction of systemic acquired resistance against Sclerospora graminicola in Cenchrus americanus cultivar 7042S assessed as protection against downy mildew disease at 20 mM applied to seeds prior to sowing followed by inoculation on 2 day old seedling and challenge-inoculation to the inflorescence primordia at boot leaf stage measured on day 60 in green house condition relative to control; type: functional
[11] = tested on: Cenchrus americanus; assay: as §2, with “day 4” for “day 2”; type: functional
[12] = tested on: Cenchrus americanus; assay: as §1, with “field” for “green house”; type: functional
[13] = tested on: Cenchrus americanus; assay: (§3) Induction of systemic acquired resistance against Sclerospora graminicola in Cenchrus americanus cultivar 7042S assessed as protection against downy mildew disease at 20 mM applied to foliar of 7 day old seedling inoculated on day 2 measured on day 30 in field conditions (reference value: 2%); type: functional
[14] = tested on: Cenchrus americanus; assay: Effect on growth parameter in disease-susceptible Cenchrus americanus cultivar 7042S assessed as yield at 20 mM applied to seeds prior to sowing (reference value: 1209 +/- 9 kg/ha); type: functional
[15] = tested on: Cenchrus americanus; assay: as §2, with “day 1” for “day 2”; type: functional
[16] = tested on: Cenchrus americanus; assay: Effect on growth parameter in disease-susceptible Cenchrus americanus cultivar 7042S assessed as weight of 1000 seeds at 20 mM applied to seeds prior to sowing (reference value: 7.4 +/- 1.4 g); type: functional
[17] = tested on: Cenchrus americanus; assay: Stimulation of flowering in downy mildew disease-susceptible Cenchrus americanus cultivar 7042S assessed as days required for 50% flowering at 20 mM applied to seeds prior to sowing measured after 60 days (reference value: 44 +/- 0.7 days ); type: functional
[18] = tested on: Cenchrus americanus; assay: Effect on growth parameter in disease-susceptible Cenchrus americanus cultivar 7042S assessed as increase in prodcutive tillers at 20 mM applied to seeds prior to sowing measured after 60 days relative to control; type: functional, organism-based
[19] = tested on: Cenchrus americanus; assay: as §3, with “to seeds prior to sowing and to” for “to”, “3%)” for “2%)”; type: functional
[20] = tested on: Cenchrus americanus; assay: as §2, with “day 5” for “day 2”; type: functional
[21] = tested on: Cenchrus americanus; assay: as §2, with “day 6” for “day 2”; type: functional
[22] = tested on: Cenchrus americanus; assay: Effect on growth parameter in disease-susceptible Cenchrus americanus cultivar 7042S assessed as length of ear at 20 mM applied to seeds prior to sowing measured after 60 days (reference value: 9.4 +/- 0.8 cm); type: functional
[23] = tested on: Cenchrus americanus; assay: as §2, with “day 3” for “day 2”; type: functional
[24] = tested on: Cenchrus americanus; assay: Effect on seed vigor in Cenchrus americanus cultivar 7042S assessed as vigor index at 20 mM incubated for 6 hr followed by sowing measured at 7-day old seedling stage (reference value: 990); type: functional
[25] = tested on: Cenchrus americanus; assay: Stimulation of growth in downy mildew disease-susceptible Cenchrus americanus cultivar 7042S assessed as plant height at 20 mM applied to seeds prior to sowing measured after 60 days (reference value: 58.5 cm); type: functional
[26] = tested on: Cenchrus americanus; assay: Effect on growth parameter in disease-susceptible Cenchrus americanus cultivar 7042S assessed as girth of ear at 20 mM applied to seeds prior to sowing measured after 60 days (reference value: 3.6 +/- 0.9 cm); type: functional

| Structure (SMILES) | Activity [1] [%] | Activity [2] [%] | Activity [3] | Activity [8] [%] | Activity [9] [%] | Activity [10] [%] | Activity [11] [%] | Activity [12] [%] | Activity [13] [%] | Activity [14] [kg/ha] | Activity [15] [%] | Activity [16] [g] | Time [17] [days] | Activity [18] | Activity [19] [%] | Activity [20] [%] | Activity [21] [%] | Activity [22] [cm] | Activity [23] [%] | Activity [25] [cm] | also measured |
| --- | --- | --- | --- | --- | --- | --- | --- | --- | --- | --- | --- | --- | --- | --- | --- | --- | --- | --- | --- | --- | --- |
| Cc1ncc(CO)c(CO)c1O [PYRIDOXINE] | 44 | 91 | Active | – | – | – | – | – | – | – | – | – | – | – | – | – | – | – | – | – | – |
| COCC(=O)N(c1c(C)cccc1C)C(C)C(=O)OC (stereo not given) [METALAXYL] | – | – | – | – | – | – | – | – | – | – | – | – | – | – | – | – | – | – | – | – | Activity [4]: 92%; Activity [5]: 91%; Activity [6]: 92%; Activity [7]: 92% |
| O=C(O)c1cccnc1 [NIACIN] | 63 | 92 | – | 51 | 69 | 71 | 63 | 63 | 60 | 1306 | 45 | 10.97 | 42 | Active | 65 | 63 | 63 | 11.8 | 56 | 66 | Vigour_index [24]: 1217; Activity [26]: 4 cm |
| Nc1nc(=O)c2nc(CNc3ccc(C(=O)N[C@@H](CCC(=O)O)C(=O)O)cc3)cnc2[nH]1 [FOLIC ACID] | 42 | 90 | Active | – | – | – | – | – | – | – | – | – | – | – | – | – | – | – | – | – | – |
| O=C(O)CCCC[C@@H]1SC[C@@H]2NC(=O)N[C@@H]21 [BIOTIN] | 51 | 91 | Active | – | – | – | – | – | – | – | – | – | – | – | – | – | – | – | – | – | – |
| CC1(S(=O)(=O)[O-])CC(=O)c2ccccc2C1=O.[Na+] (stereo not given) [MENADIONE SODIUM BISULPHITE] | 73 | 93 | – | 51 | 77 | 79 | 73 | 68 | 66 | 1328 | 46 | 11.74 | 40 | Active | 72 | 74 | 74 | 12 | 65 | 68 | Vigour_index [24]: 1312; Activity [26]: 4.1 cm |
| Cc1cc2nc3c(=O)[nH]c(=O)nc-3n(C[C@H](O)[C@H](O)[C@H](O)CO)c2cc1C [RIBOFLAVIN] | 62 | 92 | – | 50 | 64 | 69 | 63 | 61 | 61 | 1281 | 43 | 9.5 | 43 | Active | 67 | 63 | 63 | 11.4 | 55 | 62 | Activity [26]: 3.9 cm |
